The target of this assay is PIM1 (Homo sapiens (Human), UniProt P11309). Description: Pim kinase inhibition, PIM1 LC3K (Example 901). The format is biochemical.
Chain of PIM1 (P11309 whole entry): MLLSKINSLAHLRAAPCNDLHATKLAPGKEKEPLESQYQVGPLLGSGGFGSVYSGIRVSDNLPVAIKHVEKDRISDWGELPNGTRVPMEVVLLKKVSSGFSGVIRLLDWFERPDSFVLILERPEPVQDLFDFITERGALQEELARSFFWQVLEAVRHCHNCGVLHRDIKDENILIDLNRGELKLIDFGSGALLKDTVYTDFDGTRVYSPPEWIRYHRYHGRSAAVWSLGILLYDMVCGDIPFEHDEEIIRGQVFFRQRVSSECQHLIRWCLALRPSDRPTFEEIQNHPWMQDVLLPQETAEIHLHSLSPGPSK

Description: Determination of the Pim kinase activity of a Formula I compound is possible by a number of direct and indirect detection methods.

The term Ki denotes the equilibrium dissociation constant of an inhibitor or competing ligand from its target. Lower therefore signals higher affinity. In turn, `Cn1ncc(NC(=O)c2nc(-c3ncccc3F)sc2N)c1N1CC[C@@H](N)[C@H](F)CC1` [Example 268, 5-amino-N-(5-((4R,5R)-4-amino-5-fluoroazepan-1-yl)-1-methyl-1H-pyrazol-4-yl)-2-(3-fluoropyridin-2-yl)thiazole-4-carboxamide] registered an inhibition constant (Ki) of 0.186 nM.
For `Cn1ncc(NC(=O)c2nc(-c3ccccc3F)cnc2N)c1N1CCC(N)C(F)CC1` (single isomer, unassigned) [Example 243, 3-amino-N-(5-(4-amino-5-fluoroazepan-1-yl)-1-methyl-1H-pyrazol-4-yl)-6-(2-fluorophenyl)pyrazine-2-carboxamide], the inhibition constant (Ki) turned out to be 0.123 nM.
`Cc1noc(C)c1-c1nc(C(=O)Nc2cnn(C)c2N2CCC[C@H](N)CC2)c(N)s1` [Example 421, 5-amino-N-[5-[(4S)-4-aminoazepan-1-yl]-1-methyl-pyrazol-4-yl]-2-(3,5-dimethylisoxazol-4-yl)thiazole-4-carboxamide]: the Ki turned out to be 4.37 nM.
As for `Cn1ncc(NC(=O)c2nc(-c3cc(F)ccc3F)sc2N)c1N1CC[C@H](N)CC(F)(F)C1` [Example 282, (S)-5-amino-N-(5-(5-amino-3,3-difluoroazepan-1-yl)-1-methyl-1H-pyrazol-4-yl)-2-(2,5-difluorophenyl)thiazole-4-carboxamide], the Ki was 0.004 nM.
`Cn1ncc(NC(=O)c2nc(-c3cc(F)ccc3F)sc2N)c1N1CC[C@@H](F)[C@@H](N)CC1` [Example 266, 5-amino-N-(5-((4S,5R)-4-amino-5-fluoroazepan-1-yl)-1-methyl-1H-pyrazol-4-yl)-2-(2,5-difluorophenyl)thiazole-4-carboxamide] showed an inhibition constant (Ki) of 0.253 nM.
On to `Cn1ncc(NC(=O)c2nc(-c3c(F)cccc3F)sc2N)c1N1CCC2(CNC2)C1` [Example 359, 5-amino-N-[5-(2,6-diazaspiro[3.4]octan-6-yl)-1-methyl-pyrazol-4-yl]-2-(2,6-difluorophenyl)thiazole-4-carboxamide], for which the affinity corresponds to a Ki of 0.783 nM.
Turning to `Cn1ncc(NC(=O)c2nc(-c3c(F)cccc3F)sc2N)c1N1CCC[C@H](NCC2(C)COC2)CC1` [Example 334, 5-amino-2-(2,6-difluorophenyl)-N-[1-methyl-5-[(4S)-4-[(3-methyloxetan-3-yl)methylamino]azepan-1-yl]pyrazol-4-yl]thiazole-4-carboxamide], the Ki came out at 0.295 nM.
Take `Cc1cc(-c2nc(C(=O)Nc3cnn(C)c3N3CC[C@@H](N)[C@H](F)CC3)c(N)s2)ccn1` [Example 431, 5-amino-N-[5-[(4R,5R)-4-amino-5-fluoro-azepan-1-yl]-1-methyl-pyrazol-4-yl]-2-(2-methyl-4-pyridyl)thiazole-4-carboxamide]: the inhibition constant (Ki) came out at 1.04 nM.
The value for `Nc1sc(-c2cc(F)ccc2F)nc1C(=O)Nc1cnn(C2CC2)c1N1CCC(N)C(F)CC1` (stereo not drawn) [Example 338, 5-amino-N-[5-(4-amino-5-fluoro-azepan-1-yl)-1-cyclopropyl-pyrazol-4-yl]-2-(2,5-difluorophenyl)thiazole-4-carboxamide] was 0.159 nM; that for `Cn1ncc(NC(=O)c2nc(-c3ccccc3F)ccc2N)c1N1CCC(N)C(F)CC1` (single isomer, unassigned) [Example 246, 3-amino-N-(5-(4-amino-5-fluoroazepan-1-yl)-1-methyl-1H-pyrazol-4-yl)-6-(2-fluorophenyl)picolinamide] was 0.149 nM; that for `Cc1cnc(C)c(-c2nc(C(=O)Nc3cnn(C)c3N3CC[C@@H](N)[C@H](F)CC3)c(N)s2)c1` [Example 445, 5-amino-N-[5-[(4R,5R)-4-amino-5-fluoro-azepan-1-yl]-1-methyl-pyrazol-4-yl]-2-(2,5-dimethyl-3-pyridyl)thiazole-4-carboxamide] was 0.446 nM.
Turning to `Cc1ccc(F)c(-c2nc(C(=O)Nc3cnn(C)c3N3CC[C@@H](N)[C@@H](F)CC3)c(N)s2)c1` [Example 265, 5-amino-N-(5-((4R,5S)-4-amino-5-fluoroazepan-1-yl)-1-methyl-1H-pyrazol-4-yl)-2-(2-fluoro-5-methylphenyl)thiazole-4-carboxamide], the Ki is 0.038 nM.
The value for `Nc1sc(-c2c(F)cccc2F)nc1C(=O)Nc1cnn(CC(F)F)c1N1CCCC(O)CC1` (stereo not drawn) [Example 110, 5-Amino-N-(1-(2,2-difluoroethyl)-5-(4-hydroxyazepan-1-yl)-1H-pyrazol-4-yl)-2-(2,6-difluorophenyl)thiazole-4-carboxamide] was 0.166 nM; that for `Cn1ncc(NC(=O)c2nc(-c3ccccc3F)cnc2N)c1N1CCC(N)CC(F)(F)C1` (racemic) [Example 293, 3-amino-N-(5-(5-amino-3,3-difluoroazepan-1-yl)-1-methyl-1H-pyrazol-4-yl)-6-(2-fluorophenyl)pyrazine-2-carboxamide] was 0.023 nM; that for `Cn1ncc(NC(=O)c2nc(-c3c(F)cccc3F)sc2N)c1N1CCC(N)C2(CCO2)CC1` (single isomer, unassigned) [Example 498, 5-amino-N-[5-(5-amino-1-oxa-8-azaspiro[3.6]decan-8-yl)-1-methyl-pyrazol-4-yl]-2-(2,6-difluorophenyl)thiazole-4-carboxamide] was 0.038 nM.
Regarding `Cn1ncc(NC(=O)c2nc(-c3cc(F)ccc3F)sc2N)c1N1CC[C@@H](N)CC(F)(F)C1` [Example 283, (R)-5-amino-N-(5-(5-amino-3,3-difluoroazepan-1-yl)-1-methyl-1H-pyrazol-4-yl)-2-(2,5-difluorophenyl)thiazole-4-carboxamide], the affinity, expressed as Ki, was 0.008 nM.
The compound `CC(=O)NC1(C)CCCN(c2c(NC(=O)c3nc(-c4ncccc4F)sc3N)cnn2C)CC1` (stereo not drawn) [Example 384, N-[5-(4-acetamido-4-methyl-azepan-1-yl)-1-methyl-pyrazol-4-yl]-5-amino-2-(3-fluoro-2-pyridyl)thiazole-4-carboxamide] yielded an inhibition constant Ki of 0.613 nM.
Consider `Nc1sc(-c2c(F)cccc2F)nc1C(=O)Nc1cnn(C2CC2)c1N1CCC(N)C(F)CC1` (single isomer, unassigned) [Example 332, 5-amino-N-[5-(4-amino-5-fluoro-azepan-1-yl)-1-cyclopropyl-pyrazol-4-yl]-2-(2,6-difluorophenyl)thiazole-4-carboxamide], for which the Ki came to 0.148 nM.
For `CCn1ncc(NC(=O)c2nc(-c3c(F)cccc3F)sc2N)c1N1CCC(N)C(F)CC1` (single isomer, unassigned) [Example 369, 5-amino-N-[5-(4-amino-5-fluoro-azepan-1-yl)-1-ethyl-pyrazol-4-yl]-2-(2,6-difluorophenyl)thiazole-4-carboxamide], the affinity, expressed as Ki, was 0.178 nM.
In turn, `COC1CCN(c2c(NC(=O)c3nc(-c4c(F)cccc4F)sc3N)cnn2C2CC2)CCC1N` (single isomer, unassigned) [Example 402, 5-amino-N-[5-(4-amino-5-methoxy-azepan-1-yl)-1-cyclopropyl-pyrazol-4-yl]-2-(2,6-difluorophenyl)thiazole-4-carboxamide] came in with a Ki of 0.126 nM.
`COc1nccc(C)c1-c1nc(C(=O)Nc2cnn(C)c2N2CCC[C@H](N)CC2)c(N)s1` [Example 427, 5-amino-N-[5-[(4S)-4-aminoazepan-1-yl]-1-methyl-pyrazol-4-yl]-2-(2-methoxy-4-methyl-3-pyridyl)thiazole-4-carboxamide]: the inhibition constant (Ki) amounted to 3.7 nM.
Regarding `Cn1ncc(NC(=O)c2nc(-c3ccccc3F)ccc2N)c1N1CC[C@H](N)CC(F)(F)C1` (stereo in doubt) [Example 249, 3-amino-N-(5-(5-amino-3,3-difluoroazepan-1-yl)-1-methyl-1H-pyrazol-4-yl)-6-(2-fluorophenyl)picolinamide], the Ki was determined as 0.02 nM.
The compound `Cn1ncc(NC(=O)c2nc(-c3cc(C#N)ccc3F)sc2N)c1N1CC[C@@H](N)[C@H](F)CC1` [Example 442, 5-amino-N-[5-[(4R,5R)-4-amino-5-fluoro-azepan-1-yl]-1-methyl-pyrazol-4-yl]-2-(5-cyano-2-fluoro-phenyl)thiazole-4-carboxamide] had an inhibitory constant (Ki) of 1.08 nM.
As for `Cn1ncc(NC(=O)c2nc(-c3c(F)cccc3F)sc2N)c1N1CCCN(C2CNC2)CC1` [Example 362, 5-amino-N-[5-[4-(azetidin-3-yl)-1,4-diazepan-1-yl]-1-methyl-pyrazol-4-yl]-2-(2,6-difluorophenyl)thiazole-4-carboxamide], the Ki was 0.25 nM.
Compound `Nc1sc(-c2cc(F)ccc2F)nc1C(=O)Nc1cnn(CC(F)F)c1N1CCCC(O)CC1` (stereo not drawn) [Example 118, 5-Amino-N-(1-(2,2-difluoroethyl)-5-(4-hydroxyazepan-1-yl)-1H-pyrazol-4-yl)-2-(2,5-difluorophenyl)thiazole-4-carboxamide] gave an inhibition constant Ki of 0.292 nM.
`Cn1ncc(NC(=O)c2nc(-c3ccccc3F)cnc2N)c1N1CC[C@H](N)CC(F)(F)C1` [Example 247, (S)-3-amino-N-(5-(5-amino-3,3-difluoroazepan-1-yl)-1-methyl-1H-pyrazol-4-yl)-6-(2-fluorophenyl)pyrazine-2-carboxamide]: the affinity corresponds to a Ki of 0.01 nM.
With `Cn1ncc(NC(=O)c2nc(-c3ccccc3F)sc2N)c1N1CCNC[C@]2(CCO2)C1` (single isomer, unassigned) [Example 481], the Ki was found to be 0.496 nM.
Turning to `Cn1ncc(NC(=O)c2nc(-c3c(F)cccc3F)sc2N)c1N1CCC(N)C2(CCO2)CC1` (single isomer, unassigned) [Example 501, 5-amino-N-[5-(5-amino-1-oxa-8-azaspiro[3.6]decan-8-yl)-1-methyl-pyrazol-4-yl]-2-(2,6-difluorophenyl)thiazole-4-carboxamide], the Ki is 0.025 nM.
For the compound `Cn1ncc(NC(=O)c2nc(-c3ccccc3F)cnc2N)c1N1CCC(N)C(F)CC1` (single isomer, unassigned) [Example 244, 3-amino-N-(5-(4-amino-5-fluoroazepan-1-yl)-1-methyl-1H-pyrazol-4-yl)-6-(2-fluorophenyl)pyrazine-2-carboxamide], the Ki is 0.141 nM.
`Cn1ncc(NC(=O)c2nc(-c3ncccc3F)sc2N)c1N1CC[C@H](N)[C@@H](F)CC1` [Example 269, 5-amino-N-(5-((4S,5S)-4-amino-5-fluoroazepan-1-yl)-1-methyl-1H-pyrazol-4-yl)-2-(3-fluoropyridin-2-yl)thiazole-4-carboxamide] showed a Ki of 0.091 nM.

Values taken from patent US8614206B2 (Genentech, Inc., priority 2011, dated 2013).
